Results taken from ChEMBL document CHEMBL4715712 (Bioorg Med Chem Lett, 2016).

Assays:
[1] = molecular target: T1, Prostaglandin G/H synthase 1 (Ovis aries, UniProt P05979); test: Inhibition of Ovine COX-1 assessed as decrease in prostaglandin production using arachidonic acid as substrate pretreated for 15 mins followed by substrate addition and measured after 2 mins by enzyme immunoassay
T1 sequence (P05979 whole entry): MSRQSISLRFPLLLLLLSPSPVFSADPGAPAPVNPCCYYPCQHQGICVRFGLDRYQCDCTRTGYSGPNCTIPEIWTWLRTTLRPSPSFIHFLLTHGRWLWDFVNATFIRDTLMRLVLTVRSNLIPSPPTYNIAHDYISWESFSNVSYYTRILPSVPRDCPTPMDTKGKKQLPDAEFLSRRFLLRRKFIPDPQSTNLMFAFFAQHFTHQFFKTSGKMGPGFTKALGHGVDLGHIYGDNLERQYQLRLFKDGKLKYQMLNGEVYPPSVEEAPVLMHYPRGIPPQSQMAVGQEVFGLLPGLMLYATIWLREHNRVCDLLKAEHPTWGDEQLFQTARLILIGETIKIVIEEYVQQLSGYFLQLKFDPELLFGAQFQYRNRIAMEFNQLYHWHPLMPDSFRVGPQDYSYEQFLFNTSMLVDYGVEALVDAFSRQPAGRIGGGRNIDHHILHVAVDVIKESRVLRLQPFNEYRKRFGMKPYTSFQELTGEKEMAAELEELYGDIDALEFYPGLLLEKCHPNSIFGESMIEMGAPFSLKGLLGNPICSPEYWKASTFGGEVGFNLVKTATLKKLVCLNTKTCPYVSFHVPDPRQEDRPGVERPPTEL

[2] = Ulcerogenic activity in rat assessed as average severity of ulcers at 50 mg/kg, po administered once daily for 3 consecutive days and measured after 1 hr post last dose (reference value: 0); type: toxicity, organism-based; details: in vivo
[3] = Inhibition of soya bean 15-LOX by enzyme immunoassay; set-up: species or system Glycine max
[4] = Ulcerogenic activity in rat assessed as incidence of ulcer at 50 mg/kg, po administered once daily for 3 consecutive days and measured after 1 hr post last dose (reference value: 0%); type: toxicity, organism-based; details: in vivo
[5] = Ulcerogenic activity in rat assessed as ulcer index at 50 mg/kg, po administered once daily for 3 consecutive days and measured after 1 hr post last dose; type: toxicity, organism-based; details: in vivo, 72 h, time 3 day
Rattus norvegicus = test: Antiinflammatory activity against po dosed Wistar albino rat model of carrageenan-induced foot paw edema after 3 hrs; type: functional
[6] = Ulcerogenic activity in rat assessed as average number of ulcers at 50 mg/kg, po administered once daily for 3 consecutive days and measured after 1 hr post last dose (reference value: 0); type: toxicity, organism-based; details: in vivo

SMILES	IC50 [1]	Activity [2]	IC50 [3]	Activity [4]	UI [5]	ED50 (Rattus norvegicus)	Activity [6]
COc1ccc(/C=C/C(=O)c2sc(-c3ccccc3)nc2C)cc1OC	3.9 µM	0.57	2.8 µM	30%	3.87	80 µmol/kg	0.3
COc1cccc([C@@H]2CC(c3sc(-c4ccccc4)nc3C)=NN2c2ccc(S(N)(=O)=O)cc2)c1OC	10.2 µM	0.73	8.9 µM	20%	2.93	47 µmol/kg	0.2
Cc1ccc(-c2cc(C(F)(F)F)nn2-c2ccc(S(N)(=O)=O)cc2)cc1 [CELECOXIB]	–	0.5	–	20%	2.9	47 µmol/kg	0.4
COc1cc(/C=C/C(=O)c2sc(-c3ccccc3)nc2C)cc(OC)c1OC	6.7 µM	0.52	5.8 µM	30%	3.92	45 µmol/kg	0.4
COc1cccc(/C=C/C(=O)c2sc(-c3ccccc3)nc2C)c1OC	7.2 µM	1.03	6.22 µM	50%	6.63	59 µmol/kg	0.6
COc1ccc([C@@H]2CC(c3sc(-c4ccccc4)nc3C)=NN2c2ccc(S(C)(=O)=O)cc2)cc1OC	8.4 µM	0.85	7.4 µM	30%	4.35	52 µmol/kg	0.5
COC(=O)c1cc(-c2sc(-c3ccccc3)nc2C)nn1-c1ccc(S(N)(=O)=O)cc1	6.5 µM	0.17	6.02 µM	20%	2.67	74 µmol/kg	0.5
COC(=O)/C(O)=C/C(=O)c1sc(-c2ccccc2)nc1C	–	0.39	–	30%	3.79	–	0.4
COC(=O)c1cc(-c2sc(-c3ccccc3)nc2C)nn1-c1ccc(S(C)(=O)=O)cc1	6.8 µM	0.28	5.9 µM	20%	2.48	90 µmol/kg	0.2
COc1ccc([C@@H]2CC(c3sc(-c4ccccc4)nc3C)=NN2c2ccc(S(N)(=O)=O)cc2)cc1OC	8.6 µM	0.68	7.4 µM	30%	4.08	55 µmol/kg	0.4
COc1cccc([C@@H]2CC(c3sc(-c4ccccc4)nc3C)=NN2c2ccc(S(C)(=O)=O)cc2)c1OC	6.5 µM	0.25	5.6 µM	20%	2.65	70 µmol/kg	0.4
COc1cc([C@@H]2CC(c3sc(-c4ccccc4)nc3C)=NN2c2ccc(S(C)(=O)=O)cc2)cc(OC)c1OC	7.5 µM	0.18	6.4 µM	20%	2.78	87 µmol/kg	0.6
COc1cc([C@@H]2CC(c3sc(-c4ccccc4)nc3C)=NN2c2ccc(S(N)(=O)=O)cc2)cc(OC)c1OC	5.8 µM	0.53	4.7 µM	30%	3.83	45 µmol/kg	0.3
CC(=O)Oc1ccccc1C(=O)O [ASPIRIN]	–	–	–	–	–	714 µmol/kg	–
Cc1ccc(Cl)c(Nc2ccccc2C(=O)O)c1Cl [MECLOFENAMATE SODIUM]	–	–	5.64 µM	–	–	–	–
